According to patent US20230072421A1, “TARGETED RADIOPHARMACEUTICALS FOR THE DIAGNOSIS AND TREATMENT OF PROSTATE CANCER” (Bayer AS, priority 2019, published 2023):

Assays:
[1] = system: C4-2 cells; experiment: Cell proliferation assay (CellTiter-Glo, 5-day exposure), C4-2; type: cell-based; settings: C4-2, 1000 cells/well, Th-227 labelled at 375 kBq/nmol, mean of 1 to 6 experiments
How it was run: (§1)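 Prostate cancer cells (VCaP 4000/well; 22Rv1, C4-2, LNCaP 1000/well), Th-227-labelled PSMA ligands, 5-day exposure; viability by CTG at start and end.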

[2] = system: 22Rv1 cells; experiment: Cell proliferation assay (CellTiter-Glo, 5-day exposure), 22Rv1; type: cell-based; settings: 22Rv1, 1000 cells/well, Th-227 labelled at 375 kBq/nmol, mean of 1 to 6 experiments
How it was run: as §1

[3] = system: LNCaP cells; experiment: Cell proliferation assay (CellTiter-Glo, 5-day exposure), LNCaP; type: cell-based, human; settings: LNCaP, 1000 cells/well; Th-227 labelled at 375 kBq/nmol; 5-day exposure; mean of 1 to 6 experiments
How it was run: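 Triplicate serial dilutions; 375 kBq/nmol Th-227 label; radiochemical purity above 70% unless flagged (50–70%). Overnight attachment precedes dosing, and CTG luminescence is read at d0 and d5.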

[4] = biological target: T1, PSMA-expressing LNCaP cells (Homo sapiens, UniProt Q04609); experiment: Internalization assay (membrane bound and internalized Th-227); type: cell-based; settings: 10 nM radiolabeled compound, Th-227 at 375 kBq/nmol, triplicates; for Internalized in LNCaP fmol/10^6 cells 30 min / Membrane bound in LNCaP fmol/10^6 cells 30 min: 30 min incubation; for Internalized in LNCaP fmol/10^6 cells 2 h / Membrane bound in LNCaP fmol/10^6 cells 2 h: 2 h incubation
T1 construct: PSMA-expressing LNCaP cells; endogenous in cells; host or cells: LNCaP
Protocol: For internalization assays 24 well plates (#3526, Corning) were coated with 200 μl Poly-L-Lysine (0.1 mg/ml, #3438-100-01, Fa. Cultrex) per well for 2 h at 37° C. […] Cells were incubated at 37° C. and 5% CO2 over night. On the following day 400 μl of the media were removed and a total of 200 μl growth medium added supplemented with PSMA-SMOLs labeled with Th-227 at 375 kBq/nmol in triplicates. Radiochemical purity of the labeling was analyzed by instant thin layer chromatography and found to be above 70% for all compounds used. The final concentration of radiolabeled SMOLs was in the test wells was 10 nM. Cells were incubated for 30 min or 2 h. After the incubation time supernatants were taken off and cells washed with PBS. Thereafter cells were washed twice with 0.2 ml 50 mM Glycine-HCl buffer (#55097, Sigma Aldrich) and once with PBS and the washing solutions combined in counting vials (#TK75-018, Fa. Corning) and subjected to gamma counting (1470 Wizard automatic gamma counter, Wallac). The resulting counts were attributed to membrane bound radioactivity. Cells were then lysed with 500 μl 0.3N NaOH (#181691.1211, Fa. PanReac AppliChem ITW Reagents) followed by another wash with 500 μl PBS. The NaOH lysate as well as the final wash were combined in vials and subjected to gamma counting as described above. Measured radioactivity was attributed to internalized fraction. Results were calculated as fmol of Th-227 per/10^cells in the membrane bound and internalized fractions from triplicate values.

[5] = system: LNCaP human prostate cancer cells; experiment: LNCaP xenograft efficacy study (T/C tumor area); type: in vivo, SCID mice
How it was run: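 SCID mice with testosterone pellet bearing s.c. flank LNCaP xenografts (5×10^6 cells in Matrigel) were treated i.v. with a defined radioactive dose once tumors reached 35-50 mm^2 (n=10/group). Tumor area (caliper, longest diameter × perpendicular) measured 2-3× weekly; T/C ratio calculated from tumor areas when vehicle group closed.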

[6] = Example II, 750 kBq/kg weekly for 5 weeks, day 120
[7] = Example V, day 27 after start of therapy, once 750 kBq/kg

T1 sequence (Q04609 whole entry): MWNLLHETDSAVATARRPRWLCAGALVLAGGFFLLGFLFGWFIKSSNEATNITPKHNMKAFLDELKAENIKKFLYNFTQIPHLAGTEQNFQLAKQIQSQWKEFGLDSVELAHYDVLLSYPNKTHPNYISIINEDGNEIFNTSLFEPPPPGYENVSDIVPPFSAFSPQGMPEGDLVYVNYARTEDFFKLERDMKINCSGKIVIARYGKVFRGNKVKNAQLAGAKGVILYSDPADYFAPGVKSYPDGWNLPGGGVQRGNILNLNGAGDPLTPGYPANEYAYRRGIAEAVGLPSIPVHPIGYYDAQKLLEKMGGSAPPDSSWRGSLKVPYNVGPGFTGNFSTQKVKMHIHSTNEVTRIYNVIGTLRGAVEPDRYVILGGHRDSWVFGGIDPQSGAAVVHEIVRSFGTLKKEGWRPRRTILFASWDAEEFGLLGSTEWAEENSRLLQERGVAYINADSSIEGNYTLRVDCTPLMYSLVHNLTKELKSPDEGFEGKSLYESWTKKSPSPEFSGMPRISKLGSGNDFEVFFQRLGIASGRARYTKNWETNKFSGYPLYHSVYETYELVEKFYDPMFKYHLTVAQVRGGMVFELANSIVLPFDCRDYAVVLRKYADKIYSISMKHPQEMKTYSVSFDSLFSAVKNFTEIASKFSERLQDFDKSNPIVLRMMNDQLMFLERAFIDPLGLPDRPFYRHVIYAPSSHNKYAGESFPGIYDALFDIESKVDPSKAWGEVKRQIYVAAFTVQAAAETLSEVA

SMILES | Proliferation assay on cancer cell lines by TTCs Default Pivot #3 IC50 [kBq/mL] C4-2 1000cells 375kBq/nmol (mean) [1] | Proliferation assay on cancer cell lines by TTCs Default Pivot #3 IC50 [kBq/mL] 22Rv1 1000cells 375kBq/nmol (mean) [2] | Proliferation assay on cancer cell lines by TTCs Default Pivot #3 IC50 [kBq/mL] LnCap 1000cells 375kBq/nmol (mean) [3] | Internalized in LNCaP fmol/10^6 cells 30 min [4] | Membrane bound in LNCaP fmol/10^6 cells 30 min [4] | Internalized in LNCaP fmol/10^6 cells 2 h [4] | Membrane bound in LNCaP fmol/10^6 cells 2 h [4] | Mean tumor size [5, 6] | Tumor response [5, 6] | T/Carea ([5]; Example II, day 33 after start of therapy, 750 kBq/kg weekly for 5 weeks) | T/Carea ([5]; Example III, day 64 after start of therapy, single treatment 1.5 MBq/kg) | T/Carea [5, 7] | T/Carea ([5]; Example IV, day 36 after start of therapy, once 1 MBq/kg)
O=C([O-])CN1CCN(CC(=O)[O-])CCN(CC(=O)NCC2CCC(C(=O)NC(Cc3ccc4ccccc4c3)C(=O)NCCCCC(NC(=O)NC(CCC(=O)O)C(=O)O)C(=O)O)CC2)CCN(CC(=O)[O-])CC1.[227Th+4] [Example 1-B-227Th, [^227Th]Thorium (3S,10S,14S)-3-[(naphthalen-2-yl)methyl]-1,4,12-trioxo-1-{(1r,4S)-4-[(2-{4,7,10-tris[(carboxy-kappaO)methyl]-1,4,7,10-tetraazacyclododecan-1-yl-kappa^4N^1,N^4,N^7,N^10}acetamido)methyl]cyclohexyl}-2,5,11,13-tetraazahexadecane-10,14,16-tricarboxylate] | 0.17 kBq/mL | 0.71 kBq/mL | 0.03 kBq/mL | 55 fmol/10^6 cells | 237 fmol/10^6 cells | 189 fmol/10^6 cells | 438 fmol/10^6 cells | 20 mm^2 | full response | 0.18 | 0.51 | 0.29 | –
O=C([O-])CN1CCN(CC(=O)[O-])CCN(CC(=O)NCC2CCC(C(=O)NC(Cc3ccc4ccccc4c3)C(=O)NCCCCC(NC(=O)NC(CCC(=O)O)C(=O)O)C(=O)O)CC2)CCN(CC(=O)[O-])CC1.[227Th+4] [Example 1-B-D-227Th, [^227Th]Thorium-(3S,10S,14R)-3-[(naphthalen-2-yl)methyl]-1,4,12-trioxo-1-{(1r,4S)-4-[(2-{4,7,10-tris[(carboxy-kappaO)methyl]-1,4,7,10-tetraazacyclododecan-1-yl-kappa^4N^1,N^4,N^7,N^10}acetamido)methyl]cyclohexyl}-2,5,11,13-tetraazahexadecane-10,14,16-tricarboxylate] | 3.15 kBq/mL | 1.28 kBq/mL | 0.49 kBq/mL | 3 fmol/10^6 cells | 16 fmol/10^6 cells | 12 fmol/10^6 cells | 30 fmol/10^6 cells | – | – | – | – | 0.91 | 0.81
